Measurements taken from publication PMC10141580, “Cyclic Dichalcogenides Extend the Reach of Bioreductive Prodrugs to Harness Thiol/Disulfide Oxidoreductases: Applications to seco-Duocarmycins Targeting the Thioredoxin System” (ACS Central Science, 2023).
Read-outs that look alike come from different tables or passages of the source.

Assays:
[1] = system: NCI-60 standardized human tumor cell line panel; assay: cells; type: cell-based; details: for GI50: Homo sapiens
MEF TrxR1-ko cells = assay: Resazurin cytotoxicity assay, MEF TrxR1 knockout, 72 h; details: MEF TrxR1-ko vs wt (fl/fl)
Text: A TrxR1 knockout (ko) in mouse embryonic fibroblast (MEF) cells is, however, accessible. We compared its prodrug sensitivity to that of its parental line[49] (wild-type, wt), on the basis that TrxR1-ko should leave most Trx1 in its oxidized state (only a fraction of it can be maintained in the reduced state by alternative reductants such as Grx2),[50] so prodrugs relying on the cytosolic thioredoxin system (Trx1/TrxR1) for most of their bioreductive activation in long-term assays will have lower potency in TrxR1-ko cells.
MEF cells (ko vs. wt) we r e treated with prodrugs of the CBI-TMI and CBI-AZI series for
72 h at concentrations from 10 pm t o 3 0 µM at 27 incremental single concentrations depending on expected
potencies of the constructs. Data from at least 3 individual experiments was combined (no error bars shown for
clarity) for each cell line.

COc1cc2cc(C(=O)N3C[C@@H](CCl)c4c3cc(OC(=O)N3CCN(C(=O)CCC(=O)N5CCN(C)CC5)[C@H]5CSSC[C@H]53)c3ccccc43)[nH]c2c(OC)c1OC [P-SS66C-CBI-TMI]
GI50 ([1]; RPMI-8226, RPMI-8226, read-out: GI50): 140 nM
GI50 ([1]; RPMI-8226, cell line RPMI-8226 (LE:RPMI-8226), TMI sheet, read-out: NCI-60 screening: Log(GI50) (converted)): 141 nM
GI50 ([1]; RPMI-8226, cell line RPMI-8226 (LE:RPMI-8226), TMI sheet, read-out: NCI-60 screening: Raw GI50): 140 nM
GI50 ([1]; RXF 393, RXF 393 (RE) cell line, log10 of GI50 in M, read-out: NCI-60 screening: Log(GI50) (converted)): 34.7 nM
GI50 ([1]; RXF 393, RXF 393, read-out: GI50): 35 nM
GI50 ([1]; SF-268, SF-268, read-out: GI50): 58 nM
GI50 ([1]; SF-268, cell line SF-268 (CNS:SF-268), TMI sheet, read-out: NCI-60 screening: Log(GI50) (converted)): 58.9 nM
GI50 ([1]; SF-295, SF-295, read-out: GI50): 110 nM
GI50 ([1]; SF-295, cell line SF-295 (CNS:SF-295), TMI sheet, read-out: NCI-60 screening: Log(GI50) (converted)): 112 nM
GI50 ([1]; SF-295, cell line SF-295 (CNS:SF-295), TMI sheet, read-out: NCI-60 screening: Raw GI50): 110 nM
GI50 ([1]; SF-539, SF-539, read-out: GI50): 39 nM
GI50 ([1]; SK-MEL-5, SK-MEL-5, read-out: GI50): 110 nM
GI50 ([1]; SK-MEL-5, cell line SK-MEL-5 (ME:SK-MEL-5), TMI sheet, read-out: NCI-60 screening: Log(GI50) (converted)): 112 nM
GI50 ([1]; SK-MEL-5, cell line SK-MEL-5 (ME:SK-MEL-5), TMI sheet, read-out: NCI-60 screening: Raw GI50): 110 nM
GI50 ([1]; SK-MEL-28, SK-MEL-28, read-out: GI50): 160 nM
GI50 ([1]; SK-MEL-28, cell line SK-MEL-28 (ME:SK-MEL-28), TMI sheet, read-out: NCI-60 screening: Log(GI50) (converted)): 158 nM
GI50 ([1]; SK-OV-3, SK-OV-3 (OV) cell line, log10 of GI50 in M, read-out: NCI-60 screening: Log(GI50) (converted)): 72.4 nM
GI50 ([1]; SK-OV-3, SK-OV-3, read-out: GI50): 72 nM
GI50 ([1]; SN12C, SN12C (RE) cell line, log10 of GI50 in M, read-out: NCI-60 screening: Log(GI50) (converted)): 44.7 nM
GI50 ([1]; SN12C, read-out: GI50): 45 nM
GI50 ([1]; SNB-19, SNB-19, read-out: GI50): 91 nM
GI50 ([1]; SNB-19, cell line SNB-19 (CNS:SNB-19), TMI sheet, read-out: NCI-60 screening: Log(GI50) (converted)): 91.2 nM
GI50 ([1]; SR, read-out: GI50): 19 nM
GI50 ([1]; SW-620, SW-620, read-out: GI50): 130 nM
GI50 ([1]; SW-620, cell line SW-620 (CO:SW-620), TMI sheet, read-out: NCI-60 screening: Log(GI50) (converted)): 132 nM
GI50 ([1]; SW-620, cell line SW-620 (CO:SW-620), TMI sheet, read-out: NCI-60 screening: Raw GI50): 130 nM
GI50 ([1]; T47D, T-47D, read-out: GI50): 230 nM
GI50 ([1]; T47D, cell line T-47D (BR:T-47D), TMI sheet, read-out: NCI-60 screening: Log(GI50) (converted)): 229 nM
GI50 ([1]; TK-10, TK-10 (RE) cell line, log10 of GI50 in M, read-out: NCI-60 screening: Log(GI50) (converted)): 1050 nM
GI50 ([1]; TK-10, TK-10, read-out: GI50): 1000 nM
GI50 ([1]; U-251, U251, read-out: GI50): 81 nM
GI50 ([1]; U-251, cell line U251 (CNS:U251), TMI sheet, read-out: NCI-60 screening: Log(GI50) (converted)): 81.3 nM
GI50 ([1]; UACC-62, UACC-62, read-out: GI50): 140 nM
GI50 ([1]; UACC-62, cell line UACC-62 (ME:UACC-62), TMI sheet, read-out: NCI-60 screening: Log(GI50) (converted)): 135 nM
GI50 ([1]; UACC-62, cell line UACC-62 (ME:UACC-62), TMI sheet, read-out: NCI-60 screening: Raw GI50): 140 nM
GI50 ([1]; UACC-257, UACC-257, read-out: GI50): 270 nM
GI50 ([1]; UACC-257, cell line UACC-257 (ME:UACC-257), TMI sheet, read-out: NCI-60 screening: Log(GI50) (converted)): 275 nM
GI50 ([1]; UACC-257, cell line UACC-257 (ME:UACC-257), TMI sheet, read-out: NCI-60 screening: Raw GI50): 270 nM
GI50 ([1]; cell line M14 (ME:M14), TMI sheet, read-out: NCI-60 screening: Log(GI50) (converted)): 123 nM
GI50 ([1]; cell line SF-539 (CNS:SF-539), TMI sheet, read-out: NCI-60 screening: Log(GI50) (converted)): 38.9 nM
GI50 ([1]; cell line SR (LE:SR), TMI sheet, read-out: NCI-60 screening: Log(GI50) (converted)): 19.5 nM
GI50 ([1]; cell line SR (LE:SR), TMI sheet, read-out: NCI-60 screening: Raw GI50): 19 nM
NCI-60 screening: Log(RedIndex) ([1]; IGROV1 (OV) cell line, log10 reductive index vs P-CC60): 1.07
GI50/IC50, mean ([1]; NCI-60 vs ProliFiler, 19 overlapping cell lines): 3.5
NCI-60 screening: Log(RedIndex) ([1]; NCI-H460 (LC) cell line, log10 reductive index vs P-CC60): 1.36
NCI-60 screening: Log(RedIndex) ([1]; NCI-H522 (LC) cell line, log10 reductive index vs P-CC60): 1.49
NCI-60 screening: Log(RedIndex) ([1]; OVCAR-3 (OV) cell line, log10 reductive index vs P-CC60): 1.16
NCI-60 screening: Log(RedIndex) ([1]; OVCAR-4 (OV) cell line, log10 reductive index vs P-CC60): 1.08
NCI-60 screening: Log(RedIndex) ([1]; OVCAR-5 (OV) cell line, log10 reductive index vs P-CC60): 1.3
NCI-60 screening: Log(RedIndex) ([1]; OVCAR-8 (OV) cell line, log10 reductive index vs P-CC60): 1.26
NCI-60 screening: Log(RedIndex) ([1]; PC-3 (PR) cell line, log10 reductive index vs P-CC60): 0.82
NCI-60 screening: Log(RedIndex) ([1]; RXF 393 (RE) cell line, log10 reductive index vs P-CC60): 1.48
NCI-60 screening: Log(RedIndex) ([1]; SK-OV-3 (OV) cell line, log10 reductive index vs P-CC60): 1.47
NCI-60 screening: Log(RedIndex) ([1]; SN12C (RE) cell line, log10 reductive index vs P-CC60): 1.43
NCI-60 screening: Log(RedIndex) ([1]; TK-10 (RE) cell line, log10 reductive index vs P-CC60): 0.43
NCI-60 screening: Log(RedIndex) ([1]; cell line A549/ATCC (LC:A549/ATCC), TMI sheet): 1.35
NCI-60 screening: Log(RedIndex) ([1]; cell line BT-549 (BR:BT-549), TMI sheet): 1.04
NCI-60 screening: Log(RedIndex) ([1]; cell line CCRF-CEM (LE:CCRF-CEM), TMI sheet): 0.57
NCI-60 screening: Log(RedIndex) ([1]; cell line COLO 205 (CO:COLO 205), TMI sheet): 0.98
NCI-60 screening: Log(RedIndex) ([1]; cell line EKVX (LC:EKVX), TMI sheet): 0.97
NCI-60 screening: Log(RedIndex) ([1]; cell line HCC-2998 (CO:HCC-2998), TMI sheet): 1.45
NCI-60 screening: Log(RedIndex) ([1]; cell line HCT-15 (CO:HCT-15), TMI sheet): 0.85
NCI-60 screening: Log(RedIndex) ([1]; cell line HCT-116 (CO:HCT-116), TMI sheet): 0.99
NCI-60 screening: Log(RedIndex) ([1]; cell line HL-60(TB) (LE:HL-60(TB)), TMI sheet): 1.19
NCI-60 screening: Log(RedIndex) ([1]; cell line HOP-62 (LC:HOP-62), TMI sheet): 1.16
NCI-60 screening: Log(RedIndex) ([1]; cell line HOP-92 (LC:HOP-92), TMI sheet): 1.15
NCI-60 screening: Log(RedIndex) ([1]; cell line HT29 (CO:HT29), TMI sheet): 1.03
NCI-60 screening: Log(RedIndex) ([1]; cell line K-562 (LE:K-562), TMI sheet): 0.88
NCI-60 screening: Log(RedIndex) ([1]; cell line KM12 (CO:KM12), TMI sheet): 1.2
NCI-60 screening: Log(RedIndex) ([1]; cell line LOX IMVI (ME:LOX IMVI), TMI sheet): 1.2
NCI-60 screening: Log(RedIndex) ([1]; cell line M14 (ME:M14), TMI sheet): 1.09
NCI-60 screening: Log(RedIndex) ([1]; cell line MALME-3M (ME:MALME-3M), TMI sheet): 1.07
NCI-60 screening: Log(RedIndex) ([1]; cell line MCF7 (BR:MCF7), TMI sheet): 1.33
NCI-60 screening: Log(RedIndex) ([1]; cell line MDA-MB-435 (ME:MDA-MB-435), TMI sheet): 1.08
NCI-60 screening: Log(RedIndex) ([1]; cell line MOLT-4 (LE:MOLT-4), TMI sheet): 0.98
NCI-60 screening: Log(RedIndex) ([1]; cell line NCI-H23 (LC:NCI-H23), TMI sheet): 1.4
NCI-60 screening: Log(RedIndex) ([1]; cell line NCI-H226 (LC:NCI-H226), TMI sheet): 0.77
NCI-60 screening: Log(RedIndex) ([1]; cell line RPMI-8226 (LE:RPMI-8226), TMI sheet): 1.02
NCI-60 screening: Log(RedIndex) ([1]; cell line SF-268 (CNS:SF-268), TMI sheet): 1.42
NCI-60 screening: Log(RedIndex) ([1]; cell line SF-295 (CNS:SF-295), TMI sheet): 1.15
NCI-60 screening: Log(RedIndex) ([1]; cell line SF-539 (CNS:SF-539), TMI sheet): 1.53
NCI-60 screening: Log(RedIndex) ([1]; cell line SK-MEL-5 (ME:SK-MEL-5), TMI sheet): 1.17
NCI-60 screening: Log(RedIndex) ([1]; cell line SK-MEL-28 (ME:SK-MEL-28), TMI sheet): 1.35
NCI-60 screening: Log(RedIndex) ([1]; cell line SNB-19 (CNS:SNB-19), TMI sheet): 1.39
NCI-60 screening: Log(RedIndex) ([1]; cell line SR (LE:SR), TMI sheet): 1.15
NCI-60 screening: Log(RedIndex) ([1]; cell line SW-620 (CO:SW-620), TMI sheet): 1.15
NCI-60 screening: Log(RedIndex) ([1]; cell line T-47D (BR:T-47D), TMI sheet): 0.92
NCI-60 screening: Log(RedIndex) ([1]; cell line U251 (CNS:U251), TMI sheet): 1.27
NCI-60 screening: Log(RedIndex) ([1]; cell line UACC-62 (ME:UACC-62), TMI sheet): 1.05
NCI-60 screening: Log(RedIndex) ([1]; cell line UACC-257 (ME:UACC-257), TMI sheet): 0.86
mean reductive index ([1]; mean over NCI cell lines, vs P-CC60): 14
reductive index ([1]; span over NCI cell lines, vs P-CC60): ≤ 30
fold change of potency wt → ko (MEF TrxR1-ko cells): 3 ×
